# Test results reported in patent US20110053949A1, “4-[3-(ARYLOXY)BENZYLIDENE]-3-METHYL PIPERIDINE ARYL CARBOXAMIDE COMPOUNDS USEFUL AS FAAH INHIBITORS” (PFIZER INC., priority 2008, published 2011).
# Target: T1, Human FAAH (Homo sapiens, UniProt O00519)
# T1 construct: made in house
# T1 sequence (O00519 1-579): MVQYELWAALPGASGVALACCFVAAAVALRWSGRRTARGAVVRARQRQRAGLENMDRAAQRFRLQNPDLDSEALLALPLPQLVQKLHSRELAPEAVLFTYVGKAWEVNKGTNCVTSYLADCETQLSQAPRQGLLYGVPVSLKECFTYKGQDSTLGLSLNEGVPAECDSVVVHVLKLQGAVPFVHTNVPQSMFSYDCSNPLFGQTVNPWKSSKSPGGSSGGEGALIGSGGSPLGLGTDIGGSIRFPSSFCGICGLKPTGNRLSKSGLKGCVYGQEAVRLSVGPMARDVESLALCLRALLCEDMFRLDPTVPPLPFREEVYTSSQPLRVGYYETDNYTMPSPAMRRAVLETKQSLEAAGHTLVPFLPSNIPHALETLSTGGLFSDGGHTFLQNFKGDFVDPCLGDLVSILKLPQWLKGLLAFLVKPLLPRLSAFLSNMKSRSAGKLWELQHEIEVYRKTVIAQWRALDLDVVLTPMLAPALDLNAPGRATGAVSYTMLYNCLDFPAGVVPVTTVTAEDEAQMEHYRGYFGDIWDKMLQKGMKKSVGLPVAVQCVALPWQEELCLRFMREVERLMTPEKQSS
# Assay: FAAH enzyme assay (glutamate dehydrogenase coupled, oleamide substrate), irreversible inhibition kinetics
# Type: biochemical
# Settings: human FAAH, 30° C., pH 7.4
# Method: A FAAH enzyme assay may be carried out as described in WO2006/085196 in 384-well clear polystyrene plates in a total volume of 50 μl per well. All percents are by volume. To each well was placed the reaction mixture (40 μl) containing 1-4 nM FAAH, 50 mM NaPi, pH 7.4, 3 mM α-ketoglutarate, 0.15 mM NADH, 7.5 U/ml glutamate dehydrogenase, 2 mM ADP, 1 mM EDTA, and 0.1% Triton X-100 (The concentration shown for each component is the final concentration in the assay). To this mixture was added 5 μl of a compound of Examples 1 to 20 at various concentrations prepared in 50% DMSO (or 5 μl 50% DMSO for controls). This was immediately followed by the addition of 5 μl oleamide (500 μM) dissolved in 75% EtOH/25% DMSO and the reaction mixture is mixed for 1.5 min. The final concentrations of DMSO and EtOH in the assay were each 7.5%. The reactions was then incubated at 30° C. and the absorbance at 340 nm was collected over a period of 90 min with readings taken in 30-second intervals using SpectraMax Plus^384 Microplate Spectrophotometer (Molecular Devices, Sunnyvale, Calif.). Human FAAH used in the assay was prepared as described in the patent application WO 2006/067613. The purity of the enzyme used was greater than 98% based on an analysis by SDS-polyacrylamide gel electrophoresis followed by Coomassie Blue staining.
# Initial velocity data (V) is obtained from the slopes of the initial progressive curves. They are plotted as a function of substrate concentration and fit to the Michaelis-Menten equation (1) using Prism (GraphPad Software, Inc., San Diego, Calif.) software to obtain Km and Vmax values.
# To obtain potencies of irreversible inhibitors, progressive curves consistent with first order inhibition kinetics (two-step irreversible inhibition mechanism) are fit to equation (2) by nonlinear least squares regressions to determine kobs values at each inhibitor concentration, where [P]t is the absorbance at time t, V0 is a constant related to the steady state rate of the uninhibited reaction, and kobs is the first order rate constant for enzyme inactivation. The inhibitor dissociation constant (Ki) and the first order rate
# (2) constant of enzyme inactivation at infinite inhibitor concentration (kinact) are then obtained by fitting the kobs vs. [I] curves to equation (3).
row,Molecule,hFAAH Kinact/Ki
1,"CC1CN(C(=O)Nc2cccnc2)CC/C1=C\c1cccc(Oc2ncc(C(F)(F)F)cn2)c1 (single isomer, unassigned) [Example 16, (4E)-3-methyl-N-pyridin-3-yl-4-(3-{[5-(trifluoromethyl)pyrimidin-2-yl]oxy}benzylidene)piperidine-1-carboxamide]",6930 M⁻¹ s⁻¹
2,"CC1CN(C(=O)Nc2cccnc2)CC/C1=C\c1cccc(Oc2ccc(C(F)(F)F)cn2)c1 (single isomer, unassigned) [Example 3, (4E)-3-methyl-N-pyridin-3-yl-4-(3-{[5-(trifluoromethyl)pyridin-2-yl]oxy}benzylidene)piperidine-1-carboxamide]",4890 M⁻¹ s⁻¹
3,"CC1CN(C(=O)Nc2cccnc2)CC/C1=C\c1cccc(Oc2ncc(C(F)(F)F)cn2)c1 (single isomer, unassigned) [Example 17, (4E)-3-methyl-N-pyridin-3-yl-4-(3-{[5-(trifluoromethyl)pyrimidin-2-yl]oxy}benzylidene)piperidine-1-carboxamide]",<15.5 M⁻¹ s⁻¹
4,(4E)-N-(6-methoxypyridazin-3-yl)-3-methyl-4-(3-{[5-(trifluoromethyl)pyridin-2-yl]oxy}benzylidene)piperidine-1-carboxamide [Example 12],2500 M⁻¹ s⁻¹
5,"(4E)-N-1,2-benzisoxazol-3-yl-3-methyl-4-(3-{[5-(trifluoromethyl)pyridin-2-yl]oxy}benzylidene)piperidine-1-carboxamide [Example 13]",733 M⁻¹ s⁻¹

# Next, values leading:
row,hFAAH Kinact/Ki,Molecule
1,254 M⁻¹ s⁻¹,"CC1CN(C(=O)Nc2cccnn2)CC/C1=C\c1cccc(Oc2ccc(C(F)(F)F)cn2)c1 (single isomer, unassigned) [Example 2, (4E)-3-methyl-N-pyridazin-3-yl-4-(3-{[5-(trifluoromethyl)pyridin-2-yl]oxy}benzylidene)piperidine-1-carboxamide]"
2,71.4 M⁻¹ s⁻¹,"CC1CN(C(=O)Nc2cccnc2)CC/C1=C\c1cccc(Oc2ccc(C(F)(F)F)cn2)c1 (single isomer, unassigned) [Example 4, (4E)-3-methyl-N-pyridin-3-yl-4-(3-{[5-(trifluoromethyl)pyridin-2-yl]oxy}benzylidene)piperidine-1-carboxamide]"
3,4590 M⁻¹ s⁻¹,"CC1CN(C(=O)Nc2cccnn2)CC/C1=C\c1cccc(Oc2ccc(C(F)(F)F)cn2)c1 (single isomer, unassigned) [Example 1, (4E)-3-methyl-N-pyridazin-3-yl-4-(3-{[5-(trifluoromethyl)pyridin-2-yl]oxy}benzylidene)piperidine-1-carboxamide]"

# Same assay, conditions: pH 7.4, human FAAH, 30° C., read-out: hFAAH Kinact/Ki
row,Molecule,kinact/KI
1,"CC1CN(C(=O)Nc2ccc(C#N)nc2)CC/C1=C\c1cccc(Oc2ccc(C(F)(F)F)cn2)c1 (single isomer, unassigned) [Example 8, (4E)-N-(6-cyanopyridin-3-yl)-3-methyl-4-(3-{[5-(trifluoromethyl)pyridin-2-yl]oxy}benzylidene)piperidine-1-carboxamide]",2460 M⁻¹ s⁻¹
2,"CC1CN(C(=O)Nc2cccnc2)CC/C1=C\c1cccc(Oc2ccc(Cl)cn2)c1 (racemic) [Example 15, (4E)-4-{3-[(5-chloropyridin-2-yl)oxy]benzylidene}-3-methyl-N-pyridin-3-ylpiperidine-1-carboxamide]",4170 M⁻¹ s⁻¹
3,"CC1CN(C(=O)Nc2cnc3[nH]ccc3c2)CC/C1=C\c1cccc(Oc2ccc(C(F)(F)F)cn2)c1 (single isomer, unassigned) [Example 6, (4E)-3-methyl-N-1H-pyrrolo[2,3-b]pyridin-5-yl-4-(3-{[5-(trifluoromethyl)pyridin-2-yl]oxy}benzylidene)piperidine-1-carboxamide]",1420 M⁻¹ s⁻¹
4,"CC1CN(C(=O)Nc2cccnc2)CC/C1=C\c1cccc(Oc2ccc(Br)cn2)c1 (racemic) [Example 14, (4E)-4-{3-[(5-bromopyridin-2-yl)oxy]benzylidene}-3-methyl-N-pyridin-3-ylpiperidine-1-carboxamide]",747 M⁻¹ s⁻¹

# Results, then the molecule that gave them:
row,kinact/KI,Molecule
1,2390 M⁻¹ s⁻¹,"COc1cnc(NC(=O)N2CC/C(=C\c3cccc(Oc4ccc(C(F)(F)F)cn4)c3)C(C)C2)cn1 (single isomer, unassigned) [Example 9, (4E)-N-(5-methoxypyrazin-2-yl)-3-methyl-4-(3-{[5-(trifluoromethyl)pyridin-2-yl]oxy}benzylidene)piperidine-1-carboxamide]"
2,3390 M⁻¹ s⁻¹,"Cc1cnc(NC(=O)N2CC/C(=C\c3cccc(Oc4ccc(C(F)(F)F)cn4)c3)C(C)C2)cn1 (single isomer, unassigned) [Example 10, (4E)-3-methyl-N-(5-methylpyrazin-2-yl)-4-(3-{[5-(trifluoromethyl)pyridin-2-yl]oxy}benzylidene)piperidine-1-carboxamide]"
3,1290 M⁻¹ s⁻¹,"Cc1cncc(NC(=O)N2CC/C(=C\c3cccc(Oc4ccc(C(F)(F)F)cn4)c3)C(C)C2)c1 (single isomer, unassigned) [Example 7, (4E)-3-methyl-N-(5-methylpyridin-3-yl)-4-(3-{[5-(trifluoromethyl)pyridin-2-yl]oxy}benzylidene)piperidine-1-carboxamide]"
4,1880 M⁻¹ s⁻¹,"COc1cncc(NC(=O)N2CC/C(=C\c3cccc(Oc4ccc(C(F)(F)F)cn4)c3)C(C)C2)n1 (single isomer, unassigned) [Example 11, (4E)-N-(6-methoxypyrazin-2-yl)-3-methyl-4-(3-{[5-(trifluoromethyl)pyridin-2-yl]oxy}benzylidene)piperidine-1-carboxamide]"
5,2850 M⁻¹ s⁻¹,"COc1ccc(NC(=O)N2CC/C(=C\c3cccc(Oc4ccc(C(F)(F)F)cn4)c3)C(C)C2)cn1 (single isomer, unassigned) [Example 5, (4E)-N-(6-methoxypyridin-3-yl)-3-methyl-4-(3-{[5-(trifluoromethyl)pyridin-2-yl]oxy}benzylidene)piperidine-1-carboxamide]"

# Target: T2, rFAAH (Rattus norvegicus, UniProt P97612)
# T2 sequence (P97612 1-579): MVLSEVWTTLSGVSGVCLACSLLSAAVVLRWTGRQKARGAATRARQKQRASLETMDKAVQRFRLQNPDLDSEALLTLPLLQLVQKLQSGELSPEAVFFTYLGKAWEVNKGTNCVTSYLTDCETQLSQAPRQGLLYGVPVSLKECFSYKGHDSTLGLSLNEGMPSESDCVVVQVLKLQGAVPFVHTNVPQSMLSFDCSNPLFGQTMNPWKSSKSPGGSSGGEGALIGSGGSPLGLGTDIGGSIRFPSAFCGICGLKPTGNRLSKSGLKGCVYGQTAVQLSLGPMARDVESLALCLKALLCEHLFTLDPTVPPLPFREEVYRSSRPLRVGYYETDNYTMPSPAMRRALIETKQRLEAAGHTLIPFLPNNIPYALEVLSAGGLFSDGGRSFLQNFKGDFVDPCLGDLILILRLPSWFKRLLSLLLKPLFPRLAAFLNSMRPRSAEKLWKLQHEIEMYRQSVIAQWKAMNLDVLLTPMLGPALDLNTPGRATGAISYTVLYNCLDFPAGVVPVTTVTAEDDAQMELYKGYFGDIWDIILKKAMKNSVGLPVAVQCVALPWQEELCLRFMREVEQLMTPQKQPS
# Assay: FAAH_KINACTR rFAAH kobs/I
# Type: biochemical
# Settings: further data table, substances given by IUPAC name only
row,FAAH_KINACTR:rFAAH:kobs/I,Molecule
1,3730,CC1CN(C(=O)Nc2cccnn2)CC/C1=C\c1cccc(Oc2ccc(C(F)(F)F)cn2)c1 (stereo not drawn) [(4E)-3-methyl-N-pyridazin-3-yl-4-(3-{[5-(trifluoromethyl)pyridin-2-yl]oxy}benzylidene)piperidine-1-carboxamide]
